Test results reported in patent publication US20250032627A1, “T[…] BASED UPON DRUG CONJUGATES” (priority 2023, published 2025).

How the values were obtained:
[1] = tested on: U87 glioblastoma cells; experiment: In vitro cytotoxicity, cell viability by SRB method; assay type: cell-based, human; conditions: CPT compared with CPT-K3
Description: FIG. 10A is a table providing the IC50 of CPT and CPT-K3. FIG. 10B is a plot of cell viability (%) vs. concentration;
FIG. 10A is a table providing the IC50 of CPT and CPT-K3. FIG. 10B is a plot of cell viability (%) vs. concentration. In this example, cell viability (%) was determined using the SRB method.

[2] = Solubility and stability of CPT-K3 in borate buffer precursor solution; assay type: physicochemical
Description: Referring now to FIG. 3, CPT-K3 remains stable in a clear precursor solution.

Structure (SMILES)	cytotoxicity against the U87 glioblastoma cell line [1]	stability in borate buffer (time stable) ([2]; 75-mM borate buffer)	solubility in borate buffer ([2]; borate buffer)
CC[C@@]1(O)C(=O)OCc2c1cc1n(c2=O)Cc2cc3ccccc3nc2-1 [CPT, camptothecin, reference compound]	comparable cytotoxicity		
CC[C@@]1(OC(=O)CCC(=O)N[C@@H](CCCCN)C(=O)N[C@@H](CCCCN)C(=O)N[C@@H](CCCCN)C(=O)O)C(=O)OCc2c1cc1n(c2=O)Cc2cc3ccccc3nc2-1 [CPT-K3]	comparable cytotoxicity	at least 24 hours	good solubility
